One series relates to DM6-Mut tumor xenografts. Particulars: for tumor escape / tumor growth: NSG mice bearing DM6-Mut xenografts treated with TKT cells, ExoBlock 64 mg/kg i.p., nivolumab 10 mg/kg. An excerpt:
(A) Experimental scheme and timeline (B-C) Tumor burdens on respective days in the X-mouse model in anti-PD-1 experiment (B) or the IL-12 experiment (C).
The X mouse model was established to allow for the rapid generation of human tumors and an in vivo method of evaluation of the anti-tumor responses of patient-derived T cells to patient tumor-specific peptides expressed by the established tumors.
There are 7 different T cells derived for 3 different patients available for our studies (Table 1). […] The melanoma tumor target cells (DM6) are either transduced with a tandem mini-gene expressing GFP or with luciferase and each are genetically modified to express either the mutated peptide (DM6-Mut), tumor target or the wild type peptide (DM6-WT) control target. Tumor growth in the X mouse model is monitored either by post-mortem quantification of GFP fluorescence in the omentum or by quantification of luciferase-dependent bioluminescence of the mice by live imaging.
The X-mouse model was used to test the efficacy of ExoBlock. ExoBlock was injected i.p. into NSG mice bearing DM6-Mut tumor xenografts and treated with TKT cells.

For series [1], the system named is apoptotic cells (Jurkat cells). The conditions noted are these: Jurkat cells treated with 10 μM Etoposide for 20 h; equimolar or titrating amounts.
Procedure: Jurkat cells were treated with 10 μM Etoposide for 20 h to induce apoptosis. The cells were then stained with PSVue with equimolar or titrating molar amounts of ExoBlock. Sytox Red was used to eliminate dead cells from the analysis. The experiment was done in triplicate wells.
In another series the test system is DM6-Mut cells. The series is described as follows: Direct effect on tumor target cells in vitro. The conditions noted are these: at the doses used. In kind it is cell-based, human.
Series [2] concerns tumor associated exosomes / T cells. The series is described as follows: Reversal of exosome-mediated arrest of T cell activation (CD3/CD28-activated PBL with exosomes).
Procedure: PBL were either unactivated (Unt) or activated for 2 h (hours) with immobilized antibodies to CD3 and CD28 with exosomes (Exo), exosomes with Zn-T-DPA and Exoblock (Exo+Zn-T-DPA and Exo+ExoBlock) or without (No Exo) exosomes. NFκB expression was detected using confocal microscopy.
T cells from normal donor peripheral blood leukocytes (NDPBL) were activated for 2 h with immobilized antibodies to CD3 and CD28 in the presence or absence of exosomes and 10 μM ExoBlock. The percentage of activation was determined by monitoring the upregulation of CD69. Percentage of inhibition and reversal were calculated.
Series [3] can be described thus: Systemic organ toxicity study in mice. The conditions noted are these: dose 64 mg/kg.
Source text: (§1) Mice were euthanized 14 days after treatment with the drugs.
For series [4] the following is noted: mouse, in vivo, 64 mg/kg.
Source text: as §1

Entries after “also recorded” stand apart in the source; their conditions may differ. Like-named read-outs stand apart in the source and are kept apart here.

As for (ZnDPA)6-DP-15K [ExoBlock], in the series with DM6-Mut tumor xenografts, the “tumor escape / tumor growth” value is “significantly delayed tumor escape; also recorded: suppresses tumor growth and has comparable efficacy to anti-PD1 treatment”. Besides, in the series with DM6-Mut tumor xenografts (day 25, 64 mg/kg i.p.), the “change in tumor burden” value is on record as “two-fold change in tumor burden”. In the series with DM6-Mut tumor xenografts (mouse model), the “interference with anti-tumor responses of tumor-specific T cells” value is on record as “does not interfere with the anti-tumor responses of the tumor-specific T cells” and the “toxicities in pre-clinical efficacy studies” value is “no detectable toxicities”. Besides, the “competitive inhibition of PSVue 499 binding” value in series [1] is listed as “competitively inhibits binding of PSVue 499 to apoptotic cells in a dose-dependent manner”. In the series on DM6-Mut cells, the “direct killing / suppression of tumor target cells” value is “does not directly kill the tumor target cells; also recorded: no direct suppressive effect”. In addition, the “avidity of PS binding” value in “PS binding avidity” was “bind PS with a high avidity; also recorded: greater avidity to PS as compared to Zn-T-DPA”. The “batch consistency of reversal of immunosuppressive effect of exosomes” value in series [2] (10 μM ExoBlock, CD69 upregulation, NDPBL T cells) is “consistent in their ability to reverse immunosuppressive effect of exosomes”. For the same substance, the “blocking exosomal immune suppression in vitro” value in series [2] (PBL activated 2 h with immobilized antibodies to CD3 and CD28 with exosomes) is “more effective than both anti-PS antibody and annexin V; also recorded: inhibits exosome-mediated arrest of T cell activation”. In addition, the “reversal of the exosome-mediated arrest of T cell function” value in series [2] (comparative studies, FIG. 2A-C) is given as 75-96%. Besides, the “systemic organ toxicity (NOAEL)” value in series [3] is “NOAEL was observed”. In series [4], the histopathology of organs entry is given as “No pathology was observed”.

nivolumab [reference compound]: the “tumor escape / tumor growth” value was “enhanced the tumor suppression and delayed, but did not prevent tumor recurrence” in the series on DM6-Mut tumor xenografts; “delay tumor escape” in the series on DM6-Mut tumor xenografts (listed as anti-PD-1).

The values are drawn from patent US20220305025A1, “PHOSPHATIDYLSERINE BINDING MOLECULES BLOCK IMMUNE SUPPRESSION OF TUMOR ASSOCIATED EXOSOMES” (priority 2019, published 2022).
